Source: patent publication US6442423B1, “Device for iontophoretic administration of drugs” (Hadasit Medical Research Services & Development Limited, priority 1998, dated 2002)
Values joined by “and” are separate entries in the source; they are usually repeats but may differ in a detail not shown here. Equal values may be shown once.

Assays:
[1] = iontophoresis, rabbit eyes; cited from earlier work
[2] = INT; cited from earlier work
[3] = test system: experimentally induced keratitus; conditions: experimentally induced keratitus in the rabbit eye; cited from earlier work
[4] = monkey eye, cited from earlier work
[5] = INT via the cornea, aphakic rabbit eye; cited from earlier work
[6] = INT, drug incorporated in soft agar gel; cited from earlier work
[7] = Effect of current applied and duration of iontophoresis on drug cornea concentration (Experiment 6); type: in vivo, Albino rabbits; parameters: Gentimicin concentration in the cornea, Average: unit not given here
Excerpt: The purpose of this experiment was to determine the effect of the current applied and duration on the drug cornea concentration.

[8] = Release of gentamicin into the rabbit eye using hydrogel-probe iontophoresis (Example 5)
Method: Thirty six healthy rabbits (age 2-3 months, weight 2000 grams) were used. The study conformed with the ARVO Resolution of the Use of Animals in Research. The animals were anesthetized with intramuscular injections of ketamin HCl […] (Park Davis, Morris Plains, N.J.) and xylazine […] (Mobay, Shawnee, Kans.). Iontophoresis was carried out as follows: the distal end of the hydrogel-probe placed in a device as shown in FIG. 2 (diameter of 3 mm and 2 mm thick) was gently applied to the cornea of the rabbit while the anode of the iontophoretic system is inserted into the other end of the device and the cathode is attached to the ear of the animal.
A single concentration of 10 mg/ml gentamicin in the hydrogel-probe (dd) was studied, using two time periods of iontophoresis: long periods (60 seconds) and short periods (10 seconds). Six groups of rabbits, 6 animals per group, were treated with one of the treatments described in the following Table 1.
In group 3, one drop of topical gentamicin (14 mg/ml) was instilled into the eye every 5 minutes for 1 hour. In groups 4 and 5, mock iontophoresis was performed by placing a device containing 10 mg/ml of gentamicin on the cornea for 60 and 10 seconds without switching on the electric current. In group 6 iontophoresis was applied for 2 minutes with the dd containing NaCl 0.9% (instead of gentamicin).
Ten minutes after completion of the iontophoresis, or the control drug delivery technique in each animal, the surface of the eye was washed with 5 ml of NaCl 0.9%. The animals were sacrificed after 15 minutes by injecting an overdose of sodium pentobarbital. The entire cornea was excised with corneal scissors and rinsed again with 5 ml of NaCl 0.9%. The cornea was weighed, minced with a blade and placed into microcentrifuge tubes. To each tube, 0.5 ml 0.01 M phosphate buffered saline (pH 7.2) was added. The tubes were incubated for 18 hours in a water bath heated to 37° C., shaking at 100 oscillations/min. Thereafter the tubes were centrifuged for 10 min. at 2000 rpm. From each tube 125 microliter of the supernatant were assayed for gentamicin concentration using Abbot TDx. The concentration of gentamicin in the cornea was calculated as described before^(5). Gentamicin concentrations are expressed in micrograms per gram of tissue or per milliliter of buffer. 3 way ANOVA test was used for statistical evaluation.

[9] = Group 2: hydrogel probe 10 mg/ml gentamicin, 0.5 mA, 10 sec iontophoresis
[10] = Group 4: hydrogel probe 10 mg/ml gentamicin, 0.0 mA, 60 sec (mock iontophoresis)

Cc1nnc(SCC2=C(C(=O)O)N3C(=O)[C@@H](NC(=O)Cn4cnnn4)[C@H]3SC2)s1 [cefazoline]
concentrations in the vitreous [1]: high concentrations

CC(=O)N1CCN(c2ccc(OCC3COC(Cn4ccnc4)(c4ccc(Cl)cc4Cl)O3)cc2)CC1 (stereo not shown) [ketaconazole]
penetration into the animals' anterior chamber [2]: increased the penetration

CC1(C)S[C@@H]2[C@H](NC(=O)[C@H](C(=O)O)c3ccsc3)C(=O)N2[C@H]1C(=O)O [ticarcillin]
concentrations in the vitreous [1]: high concentrations

NC[C@H]1O[C@H](O[C@H]2[C@H](O)[C@@H](O[C@H]3O[C@H](CO)[C@@H](O)[C@H](N)[C@H]3O)[C@H](N)C[C@@H]2N)[C@H](N)C[C@@H]1O [tobramycin]
efficacy of INT versus topical administration [3]: more effective than topical administration

gentamicin
concentrations of gentamicin in the vitreous ([4]; transscleral INT using solutions, for several hours): bactericidal concentrations
damage to the retina, repeated Electro Retino Graphia (ERG) tests ([4]; transscleral INT): did not show damage to the retina
levels of gentamicin in the vitreous [5]: high levels
concentrations in the vitreous [1]: high concentrations
concentrations transferred into the rabbit cornea [6]: marked concentrations
Gentimicin concentration in the cornea, Average ([7]; Group 1: hydrogel probe 10 mg/ml, 0.0 mA, 60 sec): 2.71 ± 2.0
Gentimicin concentration in the cornea, Average ([7]; Group 2: hydrogel probe 10 mg/ml, 0.1 mA, 60 sec): 4.5 ± 3.5
Gentimicin concentration in the cornea, Average ([7]; Group 3: hydrogel probe 10 mg/ml, 0.3 mA, 60 sec): 42.2 ± 27.1
Gentimicin concentration in the cornea, Average ([7]; Group 4: hydrogel probe 10 mg/ml, 0.6 mA, 60 sec): 88.6 ± 38.6
Gentimicin concentration in the cornea, Average ([7]; Group 5: hydrogel probe 10 mg/ml, 0.0 mA, 10 sec): 0.0
Gentimicin concentration in the cornea, Average ([7]; Group 6: hydrogel probe 10 mg/ml, 0.1 mA, 10 sec): 4.0 ± 2.4
Gentimicin concentration in the cornea, Average ([7]; Group 7: hydrogel probe 10 mg/ml, 0.3 mA, 10 sec): 10.2 ± 4.1
Gentimicin concentration in the cornea, Average ([7]; Group 8: hydrogel probe 10 mg/ml, 0.6 mA, 10 sec): 22.0 ± 7.8
Gentimicin concentration in the cornea, Average ([7]; Group 9: subconj. inj., 0.3% w/v, no current): 30 ± 18.6
gentamicin concentrations in the intraocular fluid ([7]; Groups 3 and 4 (0.3 and 0.6 mA, 60 sec)): High gentamicin concentrations
increase in drug concentration as compared with SC injections ([7]; current of 0.6 mAmp): 3 times
increase in drug concentration over a non-current application (diffusion only) ([7]; current of 0.6 mAmp): about 30 times
Gentamicin concentration in cornea, Average ([8]; Group 1: hydrogel probe 10 mg/ml gentamicin, 0.5 mA, 60 sec iontophoresis): 33.1 ± 9.3 µg/g
Gentamicin concentration in cornea, Average [8, 9]: 6.5 ± 0.8 µg/g
Gentamicin concentration in cornea, single eyes (Eye No. 1-6) [8, 9]: 6.27 µg/g and 6.53 µg/g and 4.92 µg/g and 6.70 µg/g and 7.05 µg/g and 7.52 µg/g
Gentamicin concentration in cornea, Average ([8]; Group 3: eye drops, one drop every 5 minutes for 1 hour, no current): 2.1 ± 1.0 µg/g
Gentamicin concentration in cornea, Average [8, 10]: 2.6 ± 0.3 µg/g
Gentamicin concentration in cornea, single eyes (Eye No. 1-6) [8, 10]: 2.01 µg/g and 2.55 µg/g and 2.78 µg/g and 2.89 µg/g and 2.70 µg/g and 2.96 µg/g
Gentamicin concentration in cornea, Average ([8]; Group 5: hydrogel probe 10 mg/ml gentamicin, 0.0 mA, 10 sec (mock iontophoresis)): 1.1 ± 0.4 µg/g
